Experimental data taken from patent US12091402B2 (Avilar Therapeutics, Inc., priority 2021, dated 2024).
Where two headings read alike, the source gives them in different places.

What was measured:
IgG = assay: Affinity to IgG by surface plasmon resonance (SPR); type: binding; conditions: SPR; read-out: IgG KD
Method: Immobilization levels ranging from 1000-1300 resonance units (RU) are obtained. The running buffer is 10 mM HEPES, pH 7.4, 400 mM NaCl, 0.005% P20, […].

[1] = biological target: T1, ASGPR receptor on the cell surface (HepG2 cells) (Homo sapiens, UniProt P07306); assay: Ternary complex formation assay (flow cytometry, HepG2); type: cell-based
T1 construct: host or cells: HepG2
T1 sequence (P07306 1-291): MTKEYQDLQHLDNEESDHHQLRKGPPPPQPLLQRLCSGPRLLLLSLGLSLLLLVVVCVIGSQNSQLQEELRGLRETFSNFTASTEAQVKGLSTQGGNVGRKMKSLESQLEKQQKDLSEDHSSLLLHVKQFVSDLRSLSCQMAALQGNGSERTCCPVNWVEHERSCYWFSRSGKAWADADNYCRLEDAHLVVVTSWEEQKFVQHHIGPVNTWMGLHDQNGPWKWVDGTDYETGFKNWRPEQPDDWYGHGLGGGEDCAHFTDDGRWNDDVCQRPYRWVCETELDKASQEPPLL
T1 sequence (P07307 1-311 partner): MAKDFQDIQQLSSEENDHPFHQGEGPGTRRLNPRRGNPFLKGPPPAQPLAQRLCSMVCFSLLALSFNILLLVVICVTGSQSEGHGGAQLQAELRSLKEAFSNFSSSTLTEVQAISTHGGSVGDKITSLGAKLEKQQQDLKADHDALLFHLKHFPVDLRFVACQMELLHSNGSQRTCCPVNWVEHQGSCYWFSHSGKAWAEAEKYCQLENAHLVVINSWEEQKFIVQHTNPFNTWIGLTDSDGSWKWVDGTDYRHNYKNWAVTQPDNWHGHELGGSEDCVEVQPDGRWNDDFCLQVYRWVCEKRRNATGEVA
Summary of the method: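 HepG2 cells (1×10^5/well) incubated 1 h at 4 °C with 100 nM AF488-labeled anti-human IgG plus serial IgG-based degrader, or 100 nM AF488 rabbit anti-DNP plus serial DNP-based degrader. After washing, cell-associated AF488 MFI read by flow cytometry; peak MFI marks optimal degrader concentration for ternary complex.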

HepG2 cells = assay: Cellular uptake assay of AF488-labeled antibody (HepG2); type: cell-based
Summary of the method: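 Ternary-complex uptake via ASGPR was imaged after fixation: the read-out is AF488-positive HepG2 cells divided by total DAPI nuclei. Degrader dilutions (IgG- or DNP-based, 0.1% DMSO final) were co-incubated 6 h at 37° C. with 100 nM of the corresponding fluorescent antibody.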

ASGPR = biological target: T2, ASGPR (Homo sapiens, UniProt P07306); assay: Affinity to ASGPR by surface plasmon resonance (SPR)
T2 sequence (P07306 1-291): T1 sequence (P07306 1-291)

[2] = HepG2 cells, ternary complex formation, read-out: TCF EC50
[3] = HepG2 cells, read-out: Uptake EC50

EC50 [1, 2]	SMILES	Kd (IgG)	EC50 [1]	EC50 (HepG2 cells; HepG2 cells, 100 nM AF488-labeled antibody, 37° C. for 6 hours, class symbols, read-out: Uptake Assay EC50)	Kd (ASGPR)	EC50 (HepG2 cells; [3])	EC50 ([1]; Ternary Complex EC50 (nM), HepG2 cells, 100 nM AF488-labeled antibody, 1 hour at 4° C., class symbols)	EC50 (HepG2 cells; Homo sapiens, HepG2, 6 h, read-out: Uptake Assay EC50 (nM))
	CC(C)C[C@@H]1NC(=O)[C@H](Cc2c[nH]cn2)NC(=O)[C@H](Cc2c[nH]c3ccccc23)NC(=O)[C@H](C)NC(=O)[C@@H]2CSSC[C@H](NC(=O)[C@H](Cc3c[nH]c4ccccc34)NC(=O)[C@H](C(C)C)NC(=O)[C@H](CC(C)C)NC(=O)[C@H](CCC(=O)O)NC(=O)CNC1=O)C(=O)N[C@@H]([C@@H](C)O)C(=O)N1CCC[C@@H]1C(=O)N1C[C@@H](NC(=O)CNC(COCCC(=O)NCCOCCOCCOCCOC[C@H]3OC[C@H](Nc4cncc(C(F)(F)F)n4)[C@@H](O)[C@H]3O)COCCC(=O)NCCOCCOCCOCCOC[C@H]3OC[C@H](Nc4cncc(C(F)(F)F)n4)[C@@H](O)[C@H]3O)C[C@H]1C(=O)N[C@@H](CC(=O)O)C(=O)N2 [Compound 45]	< 100 nM	< 100 nM	< 100 nM	< 100 nM			
< 100 nM	CC(C)C[C@@H]1NC(=O)[C@H](Cc2cnc[nH]2)NC(=O)[C@H](Cc2c[nH]c3ccccc23)NC(=O)[C@H](C)NC(=O)[C@@H]2CSSC[C@H](NC(=O)[C@H](Cc3c[nH]c4ccccc34)NC(=O)[C@H](C(C)C)NC(=O)[C@H](CC(C)C)NC(=O)[C@H](CCC(=O)O)NC(=O)CNC1=O)C(=O)N[C@@H]([C@@H](C)O)C(=O)N1CCC[C@@H]1C(=O)N1C[C@@H](NC(=O)c3ccc4c(c3)C(=O)c3cc(C(=O)NC[C@H]5OC[C@H](Nc6cncc(C(F)(F)F)n6)[C@@H](O)[C@H]5O)ccc3-4)C[C@H]1C(=O)N[C@@H](CC(=O)O)C(=O)N2 [Compound 64]	< 100 nM			< 100 nM	100 to 500 nM		
	CC(=O)N[C@H]1[C@H](OCCOCCOCCOCCNC(=O)CCOCC(COCCC(=O)NCCOCCOCCOCCO[C@@H]2O[C@H](CO)[C@H](O)[C@H](O)[C@H]2NC(C)=O)(COCCC(=O)NCCOCCOCCOCCO[C@@H]2O[C@H](CO)[C@H](O)[C@H](O)[C@H]2NC(C)=O)NC(=O)CCCCCn2cc(CCCC(=O)NCCOCCOCCOCCOCCC(=O)N[C@H]3C[C@H]4C(=O)N[C@@H](CC(=O)O)C(=O)N[C@H]5CSSC[C@H](NC(=O)[C@H](Cc6c[nH]c7ccccc67)NC(=O)[C@H](C(C)C)NC(=O)[C@H](CC(C)C)NC(=O)[C@H](CCC(=O)O)NC(=O)CNC(=O)[C@H](CC(C)C)NC(=O)[C@H](Cc6c[nH]cn6)NC(=O)[C@H](Cc6c[nH]c7ccccc67)NC(=O)[C@H](C)NC5=O)C(=O)N[C@@H]([C@@H](C)O)C(=O)N5CCC[C@@H]5C(=O)N4C3)nn2)O[C@H](CO)[C@H](O)[C@@H]1O [Compound 85]	< 100 nM	> 1000 nM		500 to 1000 nM	> 1000 nM		
> 1000 nM	CC(C)C[C@@H]1NC(=O)[C@H](Cc2cnc[nH]2)NC(=O)[C@H](Cc2c[nH]c3ccccc23)NC(=O)[C@H](C)NC(=O)[C@@H]2CSSC[C@H](NC(=O)[C@H](Cc3c[nH]c4ccccc34)NC(=O)[C@H](C(C)C)NC(=O)[C@H](CC(C)C)NC(=O)[C@H](CCC(=O)O)NC(=O)CNC1=O)C(=O)N[C@@H]([C@@H](C)O)C(=O)N1CCC[C@@H]1C(=O)N1C[C@@H](NC(=O)C3CCC(C(=O)NC[C@H]4OC[C@H](Nc5cncc(C(F)(F)F)n5)[C@@H](O)[C@H]4O)CC3)C[C@H]1C(=O)N[C@@H](CC(=O)O)C(=O)N2 (stereo partly shown) [Compound 69]	< 100 nM			100 to 500 nM	> 1000 nM		

SMILES	EC50 [1, 2]	Kd (IgG)	EC50 [1]	EC50 (HepG2 cells; HepG2 cells, 100 nM AF488-labeled antibody, 37° C. for 6 hours, class symbols, read-out: Uptake Assay EC50)	Kd (ASGPR)	EC50 (HepG2 cells; [3])	EC50 ([1]; Ternary Complex EC50 (nM), HepG2 cells, 100 nM AF488-labeled antibody, 1 hour at 4° C., class symbols)	EC50 (HepG2 cells; Homo sapiens, HepG2, 6 h, read-out: Uptake Assay EC50 (nM))
O=C(CCOCC(COCCC(=O)NCCOCCOCCOCCOC[C@H]1OC[C@H](Nc2nccc(C(F)(F)F)n2)[C@@H](O)[C@H]1O)NC(=O)COCCOCCOCCNc1ccc([N+](=O)[O-])cc1[N+](=O)[O-])NCCOCCOCCOCCOC[C@H]1OC[C@H](Nc2nccc(C(F)(F)F)n2)[C@@H](O)[C@H]1O [Compound 32, 3,3′-((2-(2-(2-(2-(2-((2,4-dinitrophenyl)amino)ethoxy)ethoxy)ethoxy)acetamido)propane-1,3-diyl)bis(oxy))bis(N-(1-((2R,3R,4R,5S)-3,4-dihydroxy-5-((4-(trifluoromethyl)pyrimidin-2-yl)amino)tetrahydro-2H-pyran-2-yl)-2,5,8,11-tetraoxatridecan-13-yl)propanamide)]	< 100 nM	< 100 nM			< 100 nM	< 100 nM	< 100 nM	< 100 nM
